In this assay the target is T1, ABCC1 (Homo sapiens, UniProt P33527).
T1 construct: wild-type ABCC1 (pcDNA3-ABCC1) transiently expressed in HEK293T cells
Put plainly: Calcein-AM efflux, two-colour flow cytometry in ABCC1-transfected HEK293T cells. In kind it is cell-based.

T1 sequence (P33527 whole entry): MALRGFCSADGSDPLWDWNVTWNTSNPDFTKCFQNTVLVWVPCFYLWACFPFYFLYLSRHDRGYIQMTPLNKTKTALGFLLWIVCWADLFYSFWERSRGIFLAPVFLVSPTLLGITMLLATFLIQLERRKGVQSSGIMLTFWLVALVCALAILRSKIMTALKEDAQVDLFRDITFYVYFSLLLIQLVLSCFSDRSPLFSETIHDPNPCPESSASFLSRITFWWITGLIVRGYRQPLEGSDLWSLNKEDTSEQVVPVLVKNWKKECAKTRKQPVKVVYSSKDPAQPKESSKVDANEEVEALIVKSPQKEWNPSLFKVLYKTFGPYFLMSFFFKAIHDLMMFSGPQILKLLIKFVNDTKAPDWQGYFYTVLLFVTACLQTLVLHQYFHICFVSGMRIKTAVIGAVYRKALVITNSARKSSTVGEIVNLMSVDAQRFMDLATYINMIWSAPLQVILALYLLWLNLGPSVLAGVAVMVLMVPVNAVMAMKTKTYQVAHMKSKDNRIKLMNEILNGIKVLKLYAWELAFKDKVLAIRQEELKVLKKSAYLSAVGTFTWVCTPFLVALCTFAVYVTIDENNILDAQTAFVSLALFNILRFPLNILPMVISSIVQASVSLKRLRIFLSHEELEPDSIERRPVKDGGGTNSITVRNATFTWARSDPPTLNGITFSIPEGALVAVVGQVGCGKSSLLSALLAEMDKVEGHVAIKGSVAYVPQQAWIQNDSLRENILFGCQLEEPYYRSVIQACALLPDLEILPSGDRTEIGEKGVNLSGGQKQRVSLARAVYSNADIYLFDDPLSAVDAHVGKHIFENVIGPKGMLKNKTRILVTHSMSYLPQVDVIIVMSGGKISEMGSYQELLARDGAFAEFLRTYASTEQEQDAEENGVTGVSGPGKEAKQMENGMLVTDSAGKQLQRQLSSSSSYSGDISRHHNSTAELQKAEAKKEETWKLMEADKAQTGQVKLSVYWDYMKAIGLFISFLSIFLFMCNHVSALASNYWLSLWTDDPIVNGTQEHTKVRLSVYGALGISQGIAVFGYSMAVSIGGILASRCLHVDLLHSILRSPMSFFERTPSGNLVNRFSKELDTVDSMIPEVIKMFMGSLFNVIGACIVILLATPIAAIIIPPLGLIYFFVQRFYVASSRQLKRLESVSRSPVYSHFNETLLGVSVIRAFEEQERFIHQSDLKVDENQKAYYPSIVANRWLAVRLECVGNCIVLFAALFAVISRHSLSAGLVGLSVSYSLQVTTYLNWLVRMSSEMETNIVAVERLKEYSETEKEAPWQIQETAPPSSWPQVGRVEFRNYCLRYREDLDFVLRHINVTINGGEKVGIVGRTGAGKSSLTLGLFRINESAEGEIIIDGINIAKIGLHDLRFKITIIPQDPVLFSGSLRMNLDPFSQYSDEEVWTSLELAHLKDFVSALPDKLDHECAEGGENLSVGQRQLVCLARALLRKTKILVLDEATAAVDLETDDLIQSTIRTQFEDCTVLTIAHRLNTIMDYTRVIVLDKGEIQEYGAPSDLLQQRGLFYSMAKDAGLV

The IC50 is the concentration that inhibits the measured activity by half. On to `CC1=C(CC(=O)O)c2cc(F)ccc2/C1=C\c1ccc([S+](C)[O-])cc1` (stereo not shown) [Sulindac], for which the IC50 is 106 µM.
